Results on 1 compound are retold here after publication PMC10979105, “A simple method to resolve rate constants when the binding mechanism obeys induced fit or conformational selection” (The Journal of Biological Chemistry, 2024).

One assay relates to thrombin mutant S195A. Description: Rapid kinetics (stopped-flow) of FPR binding to thrombin. The text has this:
An important validation of the method is offered by application to a case where all rate constants have been determined from analysis of the two relaxations (Equations 3 and 4). In this case, one can assume no knowledge of the fast relaxation and consider only the slow relaxation and equilibrium titrations. We illustrate this point using FPR binding to the thrombin mutant S195A, inactivated at the catalytic S195 to prevent hydrolysis ([30]). Two relaxations were reported for this case, along with equilibrium titrations (Fig. 3, A and B). Analysis of the slow relaxation α2(x) yields α(0) = 0.60 ± 0.06 s^−1, α(∞) = 17 ± 2 s^−1, xm = 4.3 ± 0.4 μM, and α(xm) = 8.8 ± 0.9 s^−1 (Fig. 3A and Table 2). […] Interpretation of the binding mechanism in terms of CS gives k12 = 17 ± 2 s^−1 and koff = 0.60 ± 0.06 s^−1. Application of Equation 11 yields kon = 2.4 ± 0.2 μM^−1s^−1 and Equation 9 gives αˆ(0)=k12+k21 = 19 ± 2 s^−1 from which a value of k21 = 2.0 ± 0.2 s^−1 can be obtained (Table 2). These values are in excellent agreement with the ones reported originally from analysis of the two independent relaxations (Table 2) ([30]). When used in Equation 3 to predict the dependence of the fast relaxation α1(x) on [FPR], the curve (discontinuous line) deviates little from experimental data (Fig. 3A, top portion of the panel). Values derived from analysis of the two relaxations are obviously more rigorous and should be preferred when available, but the accuracy of values obtained by application of the method based on Equation 11 is noteworthy. The discrepancies in Table 2 between values of k21 for CS or koff and k32 for IF are small and the fast relaxation ( α1 in Fig. 3A) predicted from knowledge of a single, saturable relaxation ( α2 in Fig. 3A), and equilibrium binding measurements (Fig. 3B) is in excellent agreement with experimental data.
Figure 3 Binding of FPR to thrombin.A, rapid kinetics of FPR binding to thrombin showing the fast ( α1 ) and slow ( α2 ) relaxations defining a mechanism of binding consistent with IF or CS (see also Fig. 1A). Continuous lines depict Equations 3 and 4 in the original report ([30]) with best-fit parameter values of Equation 1 or Equation 2 listed in Table 2. […] The discontinuous line for the slow relaxation was drawn with the empirical expression [α(0)xm+α(∞)x]/(xm+x) , where x = [FPR], with best-fit parameters listed in Table 2. The discontinuous line for the fast relaxation was drawn using Equation 3 with the four independent rate constants obtained from application of Equation 11 (Table 2). The predicted fast relaxation (discontinuous line) approximates quite well the actual experimental data and lends confidence to the validity of the method. B, fractional saturation of FPR binding to thrombin. […] This value, together with the parameters derived from analysis of the slow relaxation in panel A, allows for derivation of the value of kon from Equation 11. The four independent rate constants derived from application of the method compare well with the values determined from application of Equations 3 and 4 in the original report ([30]). Data in panels A and B were taken from ([30]) and were obtained under the following experimental conditions: 400 mM ChCl, 50 mM Tris, 0.1% PEG8000, pH 8, at 15 °C. CS, conformational selection; FPR, H-D-Phe-Pro-Arg-p-nitroanilide; IF, induced fit.
(§1) The data analyzed in this study, that is, FPR binding to prethrombin-2, prothrombin, and thrombin (Figs. 2, A and B and 3, A and B) were taken from ([30]) without modification. The methodology used to produce the recombinant proteins, measure FPR binding by stopped-flow or equilibrium titrations is reported in ([30]) and references therein. Values of the slow relaxation α(x) (Fig. 1, A and B, 2A and 3A) are measured by stopped-slow as a function of the ligand concentration and derived from fit of the time evolution of the interaction according to the expression ([1])(12) A(x,t)=A0(x)+A1(x)exp{−α(x)t}

Assay [1] concerns prethrombin-2 (S195A mutant). In words: Rapid kinetics (stopped-flow) of FPR binding to prethrombin-2.
Excerpt: Rapid kinetics of FPR binding to thrombin resolved the two independent relaxations (Equations 3 and 4) for CS and the four independent rate constants. On the other hand, similar measurements for prethrombin-2 produced only a saturable relaxation increasing with [FPR] (Fig. 2A) ([30]), thereby preventing resolution of the four independent constants and a full comparison with the mature protease thrombin. This situation provides an ideal test for application of the method based on Equation 11. The saturable relaxation for FPR binding to prethrombin-2 increases from α(0) = […] to α(∞) = 150 ± 20 s^−1, with a midpoint xm = 200 ± 20 μM and α(xm) = 88 ± 9 s^−1 (Fig. 2A and Table 2). […] Interpretation of the saturable relaxation in terms of CS gives k12 = 150 ± 20 s^−1 and koff = 25 ± 3 s^−1. Application of Equation 11 then yields kon = 4.0 ± 0.4 μM^−1s^−1 and Equation 9 gives αˆ(0)=k12+k21 = 890 ± 90 s^−1, so k21 = 740 ± 70 s^−1 (Table 2). The value of kon is almost identical to that reported for the mature protease thrombin (2.6 ± 0.3 μM^−1s^−1), whilst the value of koff is 40-fold higher (25 ± 3 s^−1 versus 0.60 ± 0.06 s^−1) ([30]). […] The conclusion is independent of whether FPR binding to prethrombin-2 is interpreted according to CS or IF. Application of the conversion formulas in Table 1 gives rate constants for IF equal to kon = 4.0 ± 0.4 μM^−1s^−1, koff = 765 ± 80 s^−1, k23 = 120 ± 10 s^−1, and k32 = 29 ± 3 s^−1 (Table 2), thereby making the contribution of a decreased rate of dissociation in the protease even more evident. Importantly, the two sets of rate constants for IF and CS yield the same value for Kd,app (Table 2), as shown by application of Equation 10 and the conversion formulas in Table 1. The importance of koff in setting the difference between ligand binding to prethrombin-2 and thrombin was anticipated by previous studies ([30]). The method based on Equation 11 provides a quantitative estimate of the difference and adds rigor to previous conclusions.
Figure 2 Binding of FPR to thrombin zymogens.A, rapid kinetics of FPR binding to the zymogens prothrombin (closed circles) and prethrombin-2 (open circles), showing a saturable relaxation associated with the interaction. The lack of information on a fast relaxation increasing linearly with [FPR] prevented assignment of the value of kon in the original report ([30]). Curves were drawn with the empirical expression [α(0)xm+α(∞)x]/(xm+x) , where x =[FPR], with best-fit parameters listed in Table 2. B, fractional saturation of FPR binding to prothrombin (closed circles) and prethrombin-2 (open circles). These values, together with the parameters derived from the plots in panel A, allow for derivation of the value of kon from Equation 11. […] Data in panels A and B were taken from ([30]) and were obtained under the following experimental conditions: 400 mM ChCl, 50 mM Tris, 0.1% PEG8000, pH 8, at 15 °C. CS, conformational selection; FPR, H-D-Phe-Pro-Arg-p-nitroanilide; IF, induced fit.
as §1

Where [2] appears, read: model independent, 400 mM ChCl, 50 mM Tris, 0.1% PEG8000, pH 8, 15 °C, fit of data from ref 30.
The mark [3] stands for this setting: model independent, pH 8, 15 °C, fit of data from ref 30.
Where [4] appears, read: IF, conversion formulas of Table 1.

SMILES strings stand for the structures. Where “and” joins values, the source holds several entries; their conditions need not be identical. Equal values may be shown once.

As to `N=C(N)NCCC[C@H](NC(=O)[C@@H]1CCCN1C(=O)[C@H](N)Cc1ccccc1)C(=O)Nc1ccc([N+](=O)[O-])cc1` [FPR, H-D-Phe-Pro-Arg-p-nitroanilide], the “αˆ(0)=k12+k21” value in the assay with thrombin mutant S195A (CS, from Equation 9) was 19 ± 2 s⁻¹. In the assay on thrombin mutant S195A (CS, method of this paper), this compound yielded a k12 of 17 ± 2 s⁻¹, a k21 of 2.0 ± 0.2 s⁻¹ and a koffCS of 0.60 ± 0.06 s⁻¹. In addition, the konCS with thrombin mutant S195A (CS, method of this paper (Equation 11)) is 2.4e+06 ± 200000 M⁻¹ s⁻¹. In the assay with thrombin mutant S195A (IF, method of this paper), the k23 is listed as 13 ± 1 (13 ± 1) s^−1, the k32 was 4.4 ± 0.4 s⁻¹, the koffIF was 2.6 ± 0.3 s⁻¹ and the konIF was found to be 2.4e+06 ± 200000 M⁻¹ s⁻¹. Besides, the kon (commonly the rate constant with which the complex forms) in the assay on thrombin mutant S195A (model independent, derived from Equation 11) turned out to be 2.4e+06 ± 200000 M⁻¹ s⁻¹. In the assay on thrombin mutant S195A (setting [2]), the “α(0), lower asymptote of slow relaxation” value was found to be 0.60 ± 0.06 s⁻¹ and the “α(∞), asymptote of slow relaxation” value turned out to be 17 ± 2 s⁻¹. For the same compound, in the assay with thrombin mutant S195A (setting [3]), the “xm, midpoint of the slow relaxation” value is 4.3 ± 0.4 µM and the “α(xm), slow relaxation at midpoint” value was found to be 8.8 ± 0.9 s⁻¹. Further, the “αˆ(0)=k12+k21” value in assay [1] (CS, from Equation 9) was found to be 890 ± 90 s⁻¹. Further, in assay [1] (CS, method of this paper), the k12 is 150 ± 20 s⁻¹ and 150 ± 10 s⁻¹; the k21 came to 740 ± 70 s⁻¹; the koffCS turned out to be 25 ± 3 s⁻¹; the konCS came out at 4e+06 ± 400000 M⁻¹ s⁻¹. Moreover, the “koff higher for prethrombin-2 than for thrombin” value in assay [1] (CS, prethrombin-2 versus thrombin) was found to be 40 fold. In assay [1] (setting [4]), this compound showed a k23 of 120 ± 10 s⁻¹ and a k32 of 29 ± 3 s⁻¹.
